Measured values taken from PubChem BioAssay (NCI).
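All cell lines were grown in 96-well plates and treated with compound for 48 hours. At the TGI there is no net growth.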

What was measured:
Experiment in all cases: inhibition of tumour cell growth, NCI panel, 48 h
TK-10 renal = tested on: TK-10 renal
T-47D breast = tested on: T-47D breast
EKVX NSCLC = tested on: EKVX NSCLC
HS 578T breast = tested on: HS 578T breast
NCI-H23 lung = tested on: NCI-H23 lung
MDA-MB-231 breast = tested on: MDA-MB-231 breast
786-0 renal = tested on: 786-0 renal
CAKI-1 renal = tested on: CAKI-1 renal
SK-MEL-5 melanoma = tested on: SK-MEL-5 melanoma
U251 CNS = tested on: U251 CNS
SK-MEL-2 melanoma = tested on: SK-MEL-2 melanoma
SK-OV-3 ovarian = tested on: SK-OV-3 ovarian
UO-31 renal = tested on: UO-31 renal
A498 renal = tested on: A498 renal
ACHN renal = tested on: ACHN renal
COLO 205 colon = tested on: COLO 205 colon
NCI-H226 lung = tested on: NCI-H226 lung
SF-539 CNS = tested on: SF-539 CNS

How did the TGI (TK-10 renal) turn out when CCOC(=O)N1CC2(C)C=CC1C(C(=O)OC)C2 (configuration not stated) was run?
Its TGI is greater than 100 µM.

And the TGI (T-47D breast)?
Its TGI is greater than 100 µM.

And the TGI (EKVX NSCLC)?
The TGI was greater than 100 µM.

And the TGI (HS 578T breast)?
Its TGI is greater than 100 µM.

And the TGI (NCI-H23 lung)?
Its TGI is greater than 100 µM.

What about the TGI (MDA-MB-231 breast) of the same compound?
Its TGI is greater than 100 µM.

What about the TGI (786-0 renal) of the same compound?
The TGI was greater than 100 µM.

And the TGI (CAKI-1 renal)?
The TGI was greater than 100 µM.

What about the TGI (SK-MEL-5 melanoma) of the same compound?
The TGI was greater than 100 µM.

And the TGI (U251 CNS)?
Its TGI is greater than 100 µM.

What about the TGI (SK-MEL-2 melanoma) of the same compound?
The TGI was greater than 100 µM.

And the TGI (SK-OV-3 ovarian)?
The TGI was greater than 100 µM.

What about the TGI (UO-31 renal) of the same compound?
Its TGI is greater than 100 µM.

What about the TGI (A498 renal) of the same compound?
The TGI was greater than 100 µM.

And the TGI (ACHN renal)?
Its TGI is greater than 100 µM.

And the TGI (COLO 205 colon)?
The TGI was greater than 100 µM.

And the TGI (NCI-H226 lung)?
Its TGI is greater than 100 µM.

For Cn1c2c(c3ccccc31)CCN1OCC=C[C@@H](C(=O)O)[C@@H]21, which TGI (TK-10 renal) is on record?
Its TGI is greater than 100 µM.

And the TGI (T-47D breast)?
The TGI was greater than 100 µM.

What about the TGI (EKVX NSCLC) of the same compound?
Its TGI is greater than 100 µM.

And the TGI (HS 578T breast)?
The TGI was greater than 100 µM.

What about the TGI (MDA-MB-231 breast) of the same compound?
The TGI was greater than 100 µM.

And the TGI (786-0 renal)?
Its TGI is greater than 100 µM.

What about the TGI (CAKI-1 renal) of the same compound?
Its TGI is greater than 100 µM.

And the TGI (SF-539 CNS)?
Its TGI is greater than 100 µM.

And the TGI (SK-MEL-5 melanoma)?
The TGI was greater than 100 µM.

And the TGI (U251 CNS)?
The TGI was greater than 100 µM.

And the TGI (SK-MEL-2 melanoma)?
Its TGI is greater than 100 µM.

And the TGI (SK-OV-3 ovarian)?
The TGI was greater than 100 µM.

And the TGI (UO-31 renal)?
Its TGI is greater than 100 µM.

And the TGI (A498 renal)?
Its TGI is greater than 100 µM.

And the TGI (ACHN renal)?
The TGI was greater than 100 µM.

What about the TGI (COLO 205 colon) of the same compound?
Its TGI is greater than 100 µM.

And the TGI (NCI-H226 lung)?
Its TGI is greater than 100 µM.

Which TGI (TK-10 renal) does the source give for CC(C)/C(Cl)=N/OC(=O)Nc1cccc(C(F)(F)F)c1 here?
The TGI was 12.7 µM.

What about the TGI (T-47D breast) of the same compound?
Its TGI is 14.1 µM.

What about the TGI (EKVX NSCLC) of the same compound?
The TGI was 7.1 µM.

And the TGI (HS 578T breast)?
Its TGI is greater than 69.4 µM.

And the TGI (NCI-H23 lung)?
The TGI was 31.3 µM.

And the TGI (MDA-MB-231 breast)?
Its TGI is 17 µM.

What about the TGI (786-0 renal) of the same compound?
The TGI was 7.52 µM.

What about the TGI (CAKI-1 renal) of the same compound?
Its TGI is 3.14 µM.

And the TGI (SK-MEL-5 melanoma)?
The TGI was 21.3 µM.

And the TGI (U251 CNS)?
The TGI was 31.3 µM.

What about the TGI (SK-MEL-2 melanoma) of the same compound?
The TGI was 32.5 µM.

What about the TGI (SK-OV-3 ovarian) of the same compound?
The TGI was 31.7 µM.

What about the TGI (UO-31 renal) of the same compound?
The TGI was 22.9 µM.

What about the TGI (A498 renal) of the same compound?
Its TGI is 37.1 µM.

What about the TGI (ACHN renal) of the same compound?
The TGI was 3.06 µM.

And the TGI (COLO 205 colon)?
The TGI was 3.46 µM.

And the TGI (NCI-H226 lung)?
Its TGI is 30.7 µM.

Which results are given for Cc1ccc(/C=N/Nc2nc3ccccc3s2)s1?
TGI (TK-10 renal): > 100 µM; TGI (T-47D breast): > 100 µM; TGI (EKVX NSCLC): > 100 µM; TGI (HS 578T breast): > 100 µM; TGI (NCI-H23 lung): > 100 µM; TGI (MDA-MB-231 breast): 89.8 µM; TGI (786-0 renal): > 100 µM; TGI (CAKI-1 renal): > 100 µM; TGI (SF-539 CNS): > 100 µM; TGI (SK-MEL-5 melanoma): > 100 µM; TGI (U251 CNS): > 100 µM; TGI (SK-MEL-2 melanoma): > 100 µM; TGI (SK-OV-3 ovarian): > 100 µM; TGI (UO-31 renal): > 100 µM; TGI (ACHN renal): > 100 µM; TGI (COLO 205 colon): > 100 µM; TGI (NCI-H226 lung): > 100 µM

Which results are given for O=C1c2sc(-c3ccc(F)cc3)cc2-n2cccc21?
TGI (TK-10 renal): 50.7 µM; TGI (T-47D breast): > 100 µM; TGI (EKVX NSCLC): > 100 µM; TGI (HS 578T breast): 62.7 µM; TGI (MDA-MB-231 breast): 86.3 µM; TGI (786-0 renal): 32.2 µM; TGI (CAKI-1 renal): 34.5 µM; TGI (SK-MEL-5 melanoma): > 100 µM; TGI (U251 CNS): 40.2 µM; TGI (SK-MEL-2 melanoma): > 100 µM; TGI (SK-OV-3 ovarian): 63 µM; TGI (UO-31 renal): > 100 µM; TGI (A498 renal): 62.8 µM; TGI (ACHN renal): > 100 µM; TGI (COLO 205 colon): > 100 µM; TGI (NCI-H226 lung): 82.2 µM

What does the source list for CC(=O)OCc1ccc2oc(=O)c(C(=O)Oc3cccc(Cl)c3)cc2c1?
TGI (TK-10 renal): 91.6 µM; TGI (T-47D breast): 41 µM; TGI (EKVX NSCLC): > 100 µM; TGI (HS 578T breast): > 100 µM; TGI (NCI-H23 lung): > 100 µM; TGI (MDA-MB-231 breast): 98.8 µM; TGI (786-0 renal): > 100 µM; TGI (CAKI-1 renal): > 100 µM; TGI (SF-539 CNS): > 100 µM; TGI (SK-MEL-5 melanoma): > 100 µM; TGI (U251 CNS): > 100 µM; TGI (SK-MEL-2 melanoma): > 100 µM; TGI (SK-OV-3 ovarian): > 100 µM; TGI (UO-31 renal): 55.4 µM; TGI (ACHN renal): > 100 µM; TGI (COLO 205 colon): 94.4 µM; TGI (NCI-H226 lung): > 100 µM

With Cc1ccc2c3c(cnc2n1)C(=O)OCCN3C as the compound, how does the TGI (TK-10 renal) read?
The TGI was greater than 100 µM.

And the TGI (T-47D breast)?
Its TGI is greater than 100 µM.

And the TGI (EKVX NSCLC)?
The TGI was greater than 100 µM.

What about the TGI (HS 578T breast) of the same compound?
Its TGI is greater than 100 µM.

What about the TGI (NCI-H23 lung) of the same compound?
The TGI was greater than 100 µM.

And the TGI (MDA-MB-231 breast)?
Its TGI is greater than 100 µM.

What about the TGI (786-0 renal) of the same compound?
Its TGI is greater than 100 µM.

What about the TGI (CAKI-1 renal) of the same compound?
The TGI was greater than 100 µM.

What about the TGI (SF-539 CNS) of the same compound?
Its TGI is greater than 100 µM.

And the TGI (SK-MEL-5 melanoma)?
Its TGI is greater than 100 µM.

What about the TGI (U251 CNS) of the same compound?
The TGI was greater than 100 µM.

And the TGI (SK-MEL-2 melanoma)?
The TGI was greater than 100 µM.

And the TGI (UO-31 renal)?
Its TGI is greater than 100 µM.

What about the TGI (A498 renal) of the same compound?
Its TGI is greater than 100 µM.

And the TGI (ACHN renal)?
The TGI was greater than 100 µM.

And the TGI (COLO 205 colon)?
The TGI was greater than 100 µM.
